Reference: ChEMBL document CHEMBL3045102, “Antibacterial, antifungal and antioxidant activity of some new water-soluble -diketones” (2013)
≈ marks a conversion by molar mass, not a printed value.

Assays:
Format in all cases: functional
[1] = test system: Escherichia coli; assay: Antibacterial activity against Escherichia coli ATCC 25922 after 24 hr by spectrophotometric method; conditions: ATCC 25922, 24 h
[2] = test system: Candida albicans; assay: Antifungal activity against Candida albicans ATCC 10231 after 48 hr by turbidity based microplate metohd; conditions: ATCC 10231, 48 h
[3] = test system: Nakaseomyces glabratus; assay: Antifungal activity against Candida glabrata ATCC 36583 after 48 hr by turbidity based microplate metohd; conditions: ATCC 36583, 48 h
[4] = test system: Pseudomonas aeruginosa; assay: Antibacterial activity against Pseudomonas aeruginosa ATCC 27853 after 24 hr by sepctrophotometric method; conditions: ATCC 27853, 24 h
[5] = test system: Bacillus subtilis; assay: Antibacterial activity against Bacillus subtilis ATCC 6633 after 24 hr by spectrophotometric method; conditions: ATCC 6633, 24 h
[6] = test system: Radical scavenging activity; assay: Antioxidant activity assessed as decrease in DPPH free radical level after 20 min by DPPH assay method; design: concentration or dose not given beside the values
[7] = test system: Staphylococcus aureus; assay: Antibacterial activity against Staphylococcus aureus ATCC 25923 after 24 hr by spectrophotometric method; conditions: ATCC 25923, 24 h

| SMILES | MIC [1] [µg/mL] | MIC [2] [µg/mL] | MIC [3] [µg/mL] | MIC [4] [µg/mL] | MIC [5] [µg/mL] | inhibition [6] [%] | MIC [7] [µg/mL] |
| --- | --- | --- | --- | --- | --- | --- | --- |
| O=C(CC(=O)c1cc(Cl)c(O[C@@H]2O[C@H](CO)[C@@H](O)[C@H](O)[C@H]2O)cc1O)c1cccs1 | 5000 (≈ 10900 µM) | 5000 (≈ 10900 µM) | 150 (≈ 327 µM) | 30 (≈ 65.4 µM) | 625 (≈ 1360 µM) | 81.2 | 300 (≈ 654 µM) |
| O=C(CC(=O)c1ccc(O[C@@H]2O[C@H](CO)[C@@H](O)[C@H](O)[C@H]2O)cc1O)c1ccccn1 | 70 (≈ 167 µM) | 2500 (≈ 5960 µM) | 5000 (≈ 11900 µM) | 19 (≈ 45.3 µM) | 300 (≈ 715 µM) | 79 | 150 (≈ 358 µM) |
| O=C(CC(=O)c1ccc(O[C@@H]2O[C@H](CO)[C@@H](O)[C@H](O)[C@H]2O)cc1O)c1ccco1 | 2500 (≈ 6120 µM) | 5000 (≈ 12200 µM) | 5000 (≈ 12200 µM) | 5000 (≈ 12200 µM) | 150 (≈ 367 µM) | 84.3 | 625 (≈ 1530 µM) |
| OC(Cn1cncn1)(Cn1cncn1)c1ccc(F)cc1F [FLUCONAZOLE] | – | 10 (≈ 32.7 µM) | 10 (≈ 32.7 µM) | – | – | – | – |
| O=C1O[C@H]([C@@H](O)CO)C(O)=C1O | – | – | – | – | – | 98 | – |
| CC1(C)S[C@@H]2[C@H](NC(=O)[C@H](N)c3ccccc3)C(=O)N2[C@H]1C(=O)O [AMPICILLIN] | 10 (≈ 28.6 µM) | – | – | 5 (≈ 14.3 µM) | 5 (≈ 14.3 µM) | – | 19 (≈ 54.4 µM) |
| O=C(CC(=O)c1ccc(O[C@@H]2O[C@H](CO)[C@@H](O)[C@H](O)[C@H]2O)cc1O)c1cccnc1 | 300 (≈ 715 µM) | 10000 (≈ 23800 µM) | 5000 (≈ 11900 µM) | 1250 (≈ 2980 µM) | 625 (≈ 1490 µM) | 74.2 | 150 (≈ 358 µM) |
| O=C(CC(=O)c1cc(Cl)c(O[C@@H]2O[C@H](CO)[C@@H](O)[C@H](O)[C@H]2O)cc1O)c1ccccn1 | 19 (≈ 41.9 µM) | 150 (≈ 331 µM) | 2500 (≈ 5510 µM) | 19 (≈ 41.9 µM) | 1250 (≈ 2750 µM) | 85.5 | 150 (≈ 331 µM) |
| O=C(CC(=O)c1ccc(O[C@@H]2O[C@H](CO)[C@@H](O)[C@H](O)[C@H]2O)cc1O)c1cccs1 | 1250 (≈ 2950 µM) | 2500 (≈ 5890 µM) | 5000 (≈ 11800 µM) | 150 (≈ 353 µM) | 150 (≈ 353 µM) | 74.2 | 300 (≈ 707 µM) |
| O=C(CC(=O)c1cc(Cl)c(O[C@@H]2O[C@H](CO)[C@@H](O)[C@H](O)[C@H]2O)cc1O)c1ccco1 | 70 (≈ 158 µM) | 2500 (≈ 5650 µM) | 5000 (≈ 11300 µM) | 19 (≈ 42.9 µM) | 300 (≈ 678 µM) | 77 | 150 (≈ 339 µM) |
| O=C(CC(=O)c1cc(Cl)c(O[C@@H]2O[C@H](CO)[C@@H](O)[C@H](O)[C@H]2O)cc1O)c1cccnc1 | 5000 (≈ 11000 µM) | 10000 (≈ 22000 µM) | 10000 (≈ 22000 µM) | 5000 (≈ 11000 µM) | 300 (≈ 661 µM) | 79.5 | 5000 (≈ 11000 µM) |
